# Tests used:
# [1] = Inhibition of proliferation by incorporation of radioactive thymidine, BHK cell culture; assay type: cell-based, Hamster; conditions: hamster; BHK cells; beyond the limit of reversible inhibition; read-out: irreversible, d. h. toxische Wirkung
# From the text: (§1) Man ließ Ajoen auf eine Zellkultur der SV40-transformierten Baby-Hamster-Kidney-Linie (BHK; Fibroblast) einwirken. Die Proliferationshemmung wurde über den Einbau von radioaktivem Thymidin getestet.
# [2] = tested on: SV40-transformierten Baby-Hamster-Kidney-Linie (BHK; Fibroblast); test: as above; assay type: cell-based; conditions: BHK cells
# From the text: as §1
# [3] = tested on: Hela-Zellen; test: Inhibition of proliferation (thymidine incorporation), Hela cells; assay type: cell-based; conditions: Hela cells (Beispiel 3)
# Experimental: (§2) Man ließ Ajoen auf eine Zellkultur der SV40-transformierten Baby-Hamster-Kidney-Linie (BHK; Fibroblast) einwirken. Die Proliferationshemmung wurde über den Einbau von radioaktivem Thymidin getestet. Sie ließ sich ab 1 µg Ajoen/ml ermitteln. Die Figur zeigt eine typische Hemmkurve. Der Figur läßt sich entnehmen, daß die Ki-Werte (50 %) im Bereich von etwa 1 bis 10 und insbesondere etwa 2 bis 5 µg Ajoen/ml lagen.
# (§3) Beispiel 1 wurde ferner abweichend mit folgenden Linien nachgearbeitet: Hela-Zellen (Beispiel 3), LTK-Mäusezellen (Fibro blasten; Beispiel 4) und humane FS4-Vorhautzellen (Fibroblast). Auch bei diesen Beispielen wurde die cytostatische und cytotoxische Wirkung des Ajoens bestätigt.
# [4] = tested on: LTK-Mäusezellen (Fibroblasten); test: Inhibition of proliferation (thymidine incorporation), LTK mouse cells; assay type: cell-based, Mäuse; conditions: LTK mouse cells (Beispiel 4)
# Experimental: as §2, §3
# [5] = tested on: humane FS4-Vorhautzellen (Fibroblast); test: Inhibition of proliferation (thymidine incorporation), human FS4 foreskin cells; assay type: cell-based
# Experimental: as §2, §3
compound,measurement,setting,value
C=CCSSC=CC[S+]([O-])CC=C (stereo not drawn) [Ajoen],MCC,[1],> 20 µg/mL
same,Hemmung der Proliferation reversibel bis zu,[2]; upper concentration of reversible inhibition,≤ 20 µg Ajoen/ml
same,minimal effective concentration,"[2]; Mesocricetus auratus, lowest concentration at which inhibition was detectable, thymidine incorporation, read-out: Proliferationshemmung ließ sich ermitteln ab",≥ 1 µg/mL
same,cytostatische und cytotoxische Wirkung,[3],bestätigt
same,cytostatische und cytotoxische Wirkung,[4],bestätigt
same,cytostatische und cytotoxische Wirkung,[5],bestätigt
